Assay results taken from patent US20240208992A1, “MACROCYCLES AS CFTR MODULATORS” (Idorsia Pharmaceuticals Ltd, priority 2021, published 2024).

Biological target: human F508del-CFTR (Homo sapiens, UniProt P13569, DEL508-508)
Experiment: F508del-CFTR cell surface expression (corrector activity), DiscoveRx ß-galactosidase complementation chemiluminescence assay in recombinant U2OS cell line;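 further: U2OS cells co-expressing ProLink-tagged F508del-CFTR and a membrane-anchored enzyme acceptor, where more surface CFTR restores β-galactosidase activity measured by chemiluminescence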
Conditions: U2OS cells, 16h compound incubation; for EC50: EC50, F508del-CFTR cell surface expression, geomean of several measurements; for Emax: U2OS, in relation to the Emax of the corrector lumacaftor (=100%), arithmetic mean

Sequence of human F508del-CFTR (P13569 with tags, fused parts or gaps DEL508-508): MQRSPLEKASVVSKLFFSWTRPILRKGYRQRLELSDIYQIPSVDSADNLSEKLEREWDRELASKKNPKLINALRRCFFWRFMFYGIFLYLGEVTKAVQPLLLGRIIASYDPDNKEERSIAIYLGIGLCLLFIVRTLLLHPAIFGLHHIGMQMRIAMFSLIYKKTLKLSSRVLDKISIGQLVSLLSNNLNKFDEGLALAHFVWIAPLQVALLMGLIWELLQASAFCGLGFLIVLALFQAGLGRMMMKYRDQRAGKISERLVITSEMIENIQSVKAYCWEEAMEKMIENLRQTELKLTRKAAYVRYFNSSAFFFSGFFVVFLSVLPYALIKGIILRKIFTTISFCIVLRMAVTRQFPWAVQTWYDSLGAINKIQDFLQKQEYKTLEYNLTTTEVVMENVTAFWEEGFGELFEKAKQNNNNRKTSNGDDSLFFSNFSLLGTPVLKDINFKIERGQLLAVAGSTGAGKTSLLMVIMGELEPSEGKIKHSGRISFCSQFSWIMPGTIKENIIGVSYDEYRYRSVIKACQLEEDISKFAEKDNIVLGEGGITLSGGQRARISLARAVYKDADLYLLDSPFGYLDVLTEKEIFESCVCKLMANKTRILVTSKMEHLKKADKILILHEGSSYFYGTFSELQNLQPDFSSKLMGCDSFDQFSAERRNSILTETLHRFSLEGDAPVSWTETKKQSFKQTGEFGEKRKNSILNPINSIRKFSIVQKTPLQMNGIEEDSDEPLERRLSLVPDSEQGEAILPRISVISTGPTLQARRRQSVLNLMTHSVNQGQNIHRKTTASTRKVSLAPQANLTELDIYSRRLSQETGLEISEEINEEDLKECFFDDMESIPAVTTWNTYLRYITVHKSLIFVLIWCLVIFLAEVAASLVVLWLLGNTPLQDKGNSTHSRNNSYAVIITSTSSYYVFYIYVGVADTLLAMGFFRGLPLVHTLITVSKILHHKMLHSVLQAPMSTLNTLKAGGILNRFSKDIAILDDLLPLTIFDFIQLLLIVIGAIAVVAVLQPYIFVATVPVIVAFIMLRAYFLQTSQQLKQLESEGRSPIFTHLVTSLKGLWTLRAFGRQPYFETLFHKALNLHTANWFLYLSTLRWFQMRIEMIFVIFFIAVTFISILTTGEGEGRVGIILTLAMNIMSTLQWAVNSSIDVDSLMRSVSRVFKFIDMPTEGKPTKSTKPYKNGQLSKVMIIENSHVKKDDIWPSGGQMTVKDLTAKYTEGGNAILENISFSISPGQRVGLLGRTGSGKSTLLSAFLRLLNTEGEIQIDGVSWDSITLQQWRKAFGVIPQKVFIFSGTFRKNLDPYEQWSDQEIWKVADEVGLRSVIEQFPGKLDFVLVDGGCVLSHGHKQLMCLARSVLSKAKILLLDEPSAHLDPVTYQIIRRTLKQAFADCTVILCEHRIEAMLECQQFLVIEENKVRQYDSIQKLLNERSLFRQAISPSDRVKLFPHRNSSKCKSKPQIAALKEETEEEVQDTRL

Structure (SMILES) | EC50 [nM] | Emax [%]
COc1noc(CCNC(=O)[C@@H]2CC(=O)N(C)[C@@H](CC(C)C)C(=O)N3CCCC[C@@H]3C(=O)N[C@H](Cc3ccccc3)COc3cc(C)c4ncccc4c3C(=O)N2)n1 [Example 920, (9S,13S,19aR,22R)-22-benzyl-13-isobutyl-N-(2-(3-methoxy-1,2,4-oxadiazol-5-yl)ethyl)-2,12-dimethyl-7,11,14,20-tetraoxo-7,8,9,10,11,12,13,14,17,18,19,19a,20,21,22,23-hexadecahydro-16H-pyrido[2′,1′:6,7][1]oxa[4,7,10,14]tetraazacycloheptadecino[16,17-f]quinoline-9-carboxamide] | 175 | 380
COc1noc(CCNC(=O)[C@@H]2CC(=O)N(C)[C@@H](CC(C)C)C(=O)N(C)C3(CC(F)(F)C3)C(=O)N[C@H](Cc3ccccc3)COc3ccc4ncc(F)cc4c3C(=O)N2)n1 [Example 922, (3′S,7′S,13′R)-13′-benzyl-3,3,20′-trifluoro-7′-isobutyl-N-(2-(3-methoxy-1,2,4-oxadiazol-5-yl)ethyl)-6′,9′-dimethyl-1′,5′,8′,11′-tetraoxo-2′,3′,4′,5′,6′,7′,8′,9′,11′,12′,13′,14′-dodecahydro-1′H-spiro[cyclobutane-1,10′-[1]oxa[4,7,10,14]tetraazacycloheptadecino[16,17-f]quinoline]-3′-carboxamide] | 302 | 396
Cc1cc2c(c3cccnc13)C(=O)N[C@H](C(=O)NCCn1nnc(C3CC3)n1)CC(=O)N(C)[C@@H](CC(C)C)C(=O)N(C)[C@H](Cc1nc(C(F)(F)F)no1)C(=O)N[C@H](Cc1ccccc1)CO2 [Example 923, (3S,7S,10R,13R)-13-benzyl-N-(2-(5-cyclopropyl-2H-tetrazol-2-yl)ethyl)-7-isobutyl-6,9,17-trimethyl-1,5,8,11-tetraoxo-10-((3-(trifluoromethyl)-1,2,4-oxadiazol-5-yl)methyl)-1,2,3,4,5,6,7,8,9,10,11,12,13,14-tetradecahydro-[1]oxa[4,7,10,14]tetraazacycloheptadecino[16,17-f]quinoline-3-carboxamide] | 26 | 500
CC(C)C[C@H]1C(=O)N(C)[C@H](Cc2nc(C(F)(F)F)no2)C(=O)N[C@H](Cc2ccccc2)COc2ccc3ncc(F)cc3c2C(=O)N[C@H](C(=O)NCCn2nnc(C3CC3)n2)CC(=O)N1C [Example 924, (3S,7S,10R,13R)-13-benzyl-N-(2-(5-cyclopropyl-2H-tetrazol-2-yl)ethyl)-20-fluoro-7-isobutyl-6,9-dimethyl-1,5,8,11-tetraoxo-10-((3-(trifluoromethyl)-1,2,4-oxadiazol-5-yl)methyl)-1,2,3,4,5,6,7,8,9,10,11,12,13,14-tetradecahydro-[1]oxa[4,7,10,14]tetraazacycloheptadecino[16,17-f]quinoline-3-carboxamide] | 33 | 409

Further compounds by falling EC50, results first:

EC50 [nM] | Emax [%] | Structure (SMILES)
487 | 398 | COc1noc(CCNC(=O)[C@@H]2CC(=O)N(C)[C@@H](CC(C)C)C(=O)N(C)[C@H](Cc3nc(-c4ccc(F)cn4)no3)C(=O)N[C@H](Cc3ccccc3)COc3ccc4cnc(C)cc4c3C(=O)N2)n1 [Example 917, (3S,7S,10R,13R)-13-benzyl-10-((3-(5-fluoropyridin-2-yl)-1,2,4-oxadiazol-5-yl)methyl)-7-isobutyl-N-(2-(3-methoxy-1,2,4-oxadiazol-5-yl)ethyl)-6,9,20-trimethyl-1,5,8,11-tetraoxo-1,2,3,4,5,6,7,8,9,10,11,12,13,14-tetradecahydro-[1]oxa[4,7,10,14]tetraazacycloheptadecino[16,17-f]isoquinoline-3-carboxamide]
231 | 393 | Cc1cc2c3c(ccc2cn1)OC[C@@H](Cc1ccccc1)NC(=O)[C@@H](Cc1nc(C(F)F)no1)N(C)C(=O)[C@H](CC(C)C)N(C)C(=O)C[C@@H](C(=O)NCCn1nnc(C2CC2)n1)NC3=O [Example 921, (3S,7S,10R,13R)-13-benzyl-N-(2-(5-cyclopropyl-2H-tetrazol-2-yl)ethyl)-10-((3-(difluoromethyl)-1,2,4-oxadiazol-5-yl)methyl)-7-isobutyl-6,9,20-trimethyl-1,5,8,11-tetraoxo-1,2,3,4,5,6,7,8,9,10,11,12,13,14-tetradecahydro-[1]oxa[4,7,10,14]tetraazacycloheptadecino[16,17-f]isoquinoline-3-carboxamide]
196 | 470 | COc1noc(CCNC(=O)[C@@H]2CC(=O)N(C)[C@@H](CC(C)C)C(=O)N(C)[C@H](Cc3nc(-c4ccc(F)cn4)no3)C(=O)N[C@H](Cc3ccccc3)COc3ccc4ncc(F)cc4c3C(=O)N2)n1 [Example 916, (3S,7S,10R,13R)-13-benzyl-20-fluoro-10-((3-(5-fluoropyridin-2-yl)-1,2,4-oxadiazol-5-yl)methyl)-7-isobutyl-N-(2-(3-methoxy-1,2,4-oxadiazol-5-yl)ethyl)-6,9-dimethyl-1,5,8,11-tetraoxo-1,2,3,4,5,6,7,8,9,10,11,12,13,14-tetradecahydro-[1]oxa[4,7,10,14]tetraazacycloheptadecino[16,17-f]quinoline-3-carboxamide]
104 | 443 | COc1noc(CCNC(=O)[C@@H]2CC(=O)N(C)[C@@H](CC(C)C)C(=O)N(C)[C@H](Cc3nc(C(F)(F)F)no3)C(=O)N[C@H](Cc3ccccc3)COc3cc(C)nc(OC)c3C(=O)N2)n1 [Example 919, (3R,6R,9S,13S)-3-benzyl-9-isobutyl-16-methoxy-N-(2-(3-methoxy-1,2,4-oxadiazol-5-yl)ethyl)-7,10,18-trimethyl-5,8,11,15-tetraoxo-6-((3-(trifluoromethyl)-1,2,4-oxadiazol-5-yl)methyl)-2,3,4,5,6,7,8,9,10,11,12,13,14,15-tetradecahydropyrido[3,4-p][1]oxa[4,7,10,14]tetraazacycloheptadecine-13-carboxamide]
92 | 286 | CC(C)C[C@H]1C(=O)N(C)[C@H](Cc2nc(C(F)(F)F)no2)C(=O)N[C@H](Cc2ccccc2)COc2ccc3ncc(F)cc3c2C(=O)N[C@H](C(=O)NCCCOC(F)(F)F)CC(=O)N1C [Example 925, (3S,7S,10R,13R)-13-benzyl-20-fluoro-7-isobutyl-6,9-dimethyl-1,5,8,11-tetraoxo-N-(3-(trifluoromethoxy)propyl)-10-((3-(trifluoromethyl)-1,2,4-oxadiazol-5-yl)methyl)-1,2,3,4,5,6,7,8,9,10,11,12,13,14-tetradecahydro-[1]oxa[4,7,10,14]tetraazacycloheptadecino[16,17-f]quinoline-3-carboxamide]
42 | 462 | COc1noc(CCNC(=O)[C@@H]2CC(=O)N(C)[C@@H](CC(C)C)C(=O)N(C)[C@H](Cc3nc(C(F)(F)F)no3)C(=O)N[C@H](Cc3ccccc3)COc3ccc4cnc(C)cc4c3C(=O)N2)n1 [Example 918, (3S,7S,10R,13R)-13-benzyl-7-isobutyl-N-(2-(3-methoxy-1,2,4-oxadiazol-5-yl)ethyl)-6,9,20-trimethyl-1,5,8,11-tetraoxo-10-((3-(trifluoromethyl)-1,2,4-oxadiazol-5-yl)methyl)-1,2,3,4,5,6,7,8,9,10,11,12,13,14-tetradecahydro-[1]oxa[4,7,10,14]tetraazacycloheptadecino[16,17-f]isoquinoline-3-carboxamide]
